Data published in US5159081A, “Intermediates of peripherally selective N-carbonyl-3,4,4-trisubstituted piperidine opioid antagonists” (Eli Lilly and Company, priority 1991, dated 1992).
Like-named read-outs stand apart in the source and are kept apart here.

Tests used:
mu receptor = target: T1, mu receptor (Rattus norvegicus, UniProt P33535); assay: Naloxone [3H] opioid receptor binding assay (mu receptor); set-up: species or system rat (male Sprague Dawley); conditions: 20 min; for Ki: rat whole brain minus cerebellum, pH 7.4, 37° C., read-out: Ki
T1 construct: The brain tissue, rat whole brain minus cerebellum for mu was homogenized; from tissue; host or cells: brain minus cerebellum of male Sprague Dawley rats, homogenate fraction
T1 sequence (P33535 whole entry): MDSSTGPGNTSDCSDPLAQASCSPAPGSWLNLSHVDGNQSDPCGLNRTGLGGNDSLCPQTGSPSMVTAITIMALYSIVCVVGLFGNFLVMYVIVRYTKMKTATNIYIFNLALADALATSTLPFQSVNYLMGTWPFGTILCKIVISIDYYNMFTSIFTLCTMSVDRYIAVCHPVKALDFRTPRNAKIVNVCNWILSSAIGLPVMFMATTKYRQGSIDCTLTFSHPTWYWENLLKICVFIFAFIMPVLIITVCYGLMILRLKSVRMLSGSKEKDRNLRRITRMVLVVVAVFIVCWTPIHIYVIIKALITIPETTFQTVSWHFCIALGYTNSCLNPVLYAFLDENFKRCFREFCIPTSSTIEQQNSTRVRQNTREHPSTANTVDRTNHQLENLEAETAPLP

[1] = system: peripheral opioid receptors; assay: mouse diarrhea test: precipitated diarrhea in morphine-maintained mice (peripheral opioid activity); assay type: in vivo; conditions: AD50 mouse writhing / ED50 mouse diarrhea; higher = greater relative peripheral antagonism
[2] = target: peripheral opioid receptors (Mus musculus, UniProt P42866); assay: as above; assay type: in vivo; conditions: mouse diarrhea test, morphine-maintained mice, subcutaneous or oral, 30 min observation
Chain of peripheral opioid receptors (Mus musculus, UniProt P42866) (P42866 whole entry): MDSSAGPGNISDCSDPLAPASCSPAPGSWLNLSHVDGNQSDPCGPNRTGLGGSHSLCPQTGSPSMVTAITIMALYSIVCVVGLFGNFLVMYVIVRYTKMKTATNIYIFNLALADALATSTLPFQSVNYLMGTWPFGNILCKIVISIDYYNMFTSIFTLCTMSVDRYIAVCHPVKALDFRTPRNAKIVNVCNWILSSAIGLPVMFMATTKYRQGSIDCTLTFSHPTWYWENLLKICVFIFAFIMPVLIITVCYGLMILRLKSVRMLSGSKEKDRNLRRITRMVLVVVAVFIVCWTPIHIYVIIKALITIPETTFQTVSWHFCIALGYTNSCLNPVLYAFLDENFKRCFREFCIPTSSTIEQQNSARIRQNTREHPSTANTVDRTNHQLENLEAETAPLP

opioid receptor = target: T2, opioid receptor (Mus musculus, UniProt P42866); assay: in vivo; set-up: species or system CF-1 male mice; conditions: sc; mouse writhing test; […]; s.c. 20 min before acetic acid; read-out: AD50 (the source's name)
T2 construct: Five CF-1 male mice (Charles River, Portage, MI); from tissue; host or cells: living CF-1 male mice (whole animal, endogenous receptor)
T2 sequence (P42866 whole entry): as above

[3] = pH 7.4, read-out: % displacement at 10 nM
[4] = pH 7.4, read-out: % displacement at 100 nM
[5] = pH 7.4, 10 nM test compound, [3H]naloxone 0.5 nM, mu receptor, read-out: % displacement at 10 nM
[6] = pH 7.4, 100 nM test compound, [3H]naloxone 0.5 nM, mu receptor, read-out: % displacement at 100 nM

SMILES | inhibition at 0.01 µM (mu receptor; [3]) [%] | inhibition at 0.1 µM (mu receptor; [4]) [%] | Ratio (ratio of AD50 to ED50) [1] | ED50 [2] [mg/kg] | ED50 (opioid receptor) [mg/kg] | Ki (mu receptor; [3H]naloxone 0.5 nM) [nM] | inhibition at 0.01 µM (mu receptor; [5]) [%] | inhibition at 0.1 µM (mu receptor; [6]) [%] | ED50 ([2]; 0.5 h, read-out: ED50) [mg/kg]
C[C@H]1CN(C[C@@H](CC2CCCCC2)NC(=O)CCCC(=O)O)CC[C@@]1(C)c1cccc(O)c1 [Example 46D] | 48 | 84 | 72 | 0.09 | 6.5 | – | – | – | –
C[C@@H]1CN(C[C@H](CC2CCCCC2)NC(=O)CCCC(=O)O)CC[C@]1(C)c1cccc(O)c1 [Example 47D] | 85 | 95 | > 4000 | 0.01 | > 40 | 1.55 | – | – | –
C[C@@H]1CN(C[C@@H](CC2CCCCC2)NC(=O)CCCC(=O)O)CC[C@]1(C)c1cccc(O)c1 [Example 48D] | 30 | 78 | > 800 | 0.05 | > 40 | – | – | – | –
COC(=O)CCCC(=O)N[C@@H](CC1CCCCC1)CN1CC[C@@](C)(c2cccc(O)c2)[C@@H](C)C1 [Example 50] | 87 | 99 | 357 | 0.056 | 20 | 3.24 | – | – | –
CCOC(=O)CCCC(=O)N[C@@H](CC1CCCCC1)CN1CC[C@@](C)(c2cccc(O)c2)[C@@H](C)C1 [Example 52] | 87 | 96 | 1400 | 0.02 | 28 | 2.34 | – | – | –
CCCOC(=O)CCCC(=O)N[C@@H](CC1CCCCC1)CN1CC[C@](C)(c2cccc(O)c2)[C@H](C)C1 [Example 53] | 50 | 88 | > 38 | 1.06 | > 40 | – | – | – | –
CCCOC(=O)CCCC(=O)N[C@@H](CC1CCCCC1)CN1CC[C@@](C)(c2cccc(O)c2)[C@@H](C)C1 [Example 54] | 81 | 96 | 18000 | 0.0015 | 27 | 5.07 | – | – | –
CC(C)COC(=O)CCCC(=O)N[C@@H](CC1CCCCC1)CN1CC[C@](C)(c2cccc(O)c2)[C@H](C)C1 [Example 55] | – | – | > 800 | – | > 40 | – | 40 | 86 | 0.05
CC(C)COC(=O)CCCC(=O)N[C@@H](CC1CCCCC1)CN1CC[C@@](C)(c2cccc(O)c2)[C@@H](C)C1 [Example 56] | – | – | 20000 | – | > 40 | – | 61 | 92 | 0.002
CCCCCCCOC(=O)CCCC(=O)N[C@@H](CC1CCCCC1)CN1CC[C@@](C)(c2cccc(O)c2)[C@@H](C)C1 [Example 57] | – | – | > 588 | – | > 40 | – | 0 | 9 | 0.068
CC(C)COC(=O)CCCC(=O)N[C@H](CC1CCCCC1)CN1CC[C@](C)(c2cccc(O)c2)[C@H](C)C1 [Example 58] | – | – | > 235 | – | > 40 | – | 0 | 38 | 0.17
CC(C)COC(=O)CCCC(=O)N[C@H](CC1CCCCC1)CN1CC[C@@](C)(c2cccc(O)c2)[C@@H](C)C1 [Example 59] | – | – | > 678 | – | > 40 | – | 6 | 53 | 0.059
